Among the data in patent publication US20240018115A1, “ALLOSTERIC CHROMENONE INHIBITORS OF PHOSPHOINOSITIDE 3-KINASE (PI3K) FOR THE TREATMENT OF DISEASE” (Petra Pharma Corporation, priority 2022, published 2024) are IC50 values, retold here.

Where only a bound is given, the exact number is not on record here.

This test has as its target T1, PI3K-Alpha kinase H1047R mutant (Homo sapiens, UniProt P42336, H1047R).
T1 construct: host or cells: MDA-MB-453
In words: PI3K-Alpha Kinase (PIK3CA) Activity, H1047R Mutant In Vitro Cell Based Assay (MDA-MB-453 cells, AlphaLisa SureFire Ultra). The following applies: 0% FBS, 3 hours treatment, relative IC50. The method, then:
PI3K-Alpha Kinase (PIK3CA) Activity, H1047R Mutant In Vitro Cell Based Assay and Determining IC50 Values for Inhibitors
The MDA-MB-453 (ATCC-HTB-131) cell line was obtained from the American Type Culture Collection (Manassas, VA). Cells were maintained in Dulbecco's Modified Eagle Media (DMEM, Gibco 11965-092) supplemented with 10% Fetal Bovine Serum, heat inactivated (FBS HI, Gibco 10082-147), 1× non-essential amino acids (NEAA, Gibco 11140-050), and 1 mM sodium pyruvate (Gibco 11360-070). Cultures were maintained in a humidified incubator at 37° C. under 5% CO2/95% air.
For compound testing in 0% FBS, MDA-MB-453 cells were seeded at a density of 1.5×10^4 cells per well in white 384-well plates in 20 μl of Minimum Essential Media (MEM) assay media with 1×NEAA, 1 mM sodium pyruvate, and 1 μg/mL human insulin (Sigma I9278). Compounds dissolved in 10 mM stock solutions in DMSO were serially diluted 1:3 in DMSO to generate a 10-point dilution series and plated using an acoustic liquid handler system (Echo 550 Series Liquid Handler, Labcyte). A 5× intermediate compound dilution plate in MEM with 1×NEAA and 1 mM sodium pyruvate (150 μM starting compound concentration in 1.5% DMSO) was then prepared. Five μl of the intermediate serially diluted compounds were added to the cell plate to final concentrations ranging from […] in 0.3% DMSO. 0.3% DMSO alone was used to establish the maximum (MAX) signal and GDC-0032 at a final concentration of 1 μM was used as a reference compound for the minimum (MIN) signal. After 3 hours treatment, the medium was removed, and the cells lysed in 10 μL of 1× SureFire Lysis buffer with shaking for 10 minutes at room temperature. The Acceptor Mix (Reaction Buffer 1+Reaction Buffer 2+Activation Buffer+SureFire Ultra Acceptor Beads) was prepared by diluting Activation buffer 25-fold in combined Reaction Buffer 1 and Reaction Buffer 2. The Acceptor beads were diluted 50-fold in the combined Reaction Buffers. Five μL of Acceptor Mix was added to each well, the plate was sealed and covered with foil and incubated for 1 hour at room temperature. The Donor Mix (dilution buffer+SureFire Ultra Donor Beads) was prepared by diluting Donor Beads 50-fold in dilution buffer. Five μL of the Donor Mix was added to each well and the plate sealed and covered with foil and incubated for 1 hour at room temperature in the dark. The plates were read on a Neo2 plate reader instrument from Biotek using standard AlphaLisa settings. Compounds were tested in duplicate and the average % inhibition at each compound concentration was used to generate a single dose response curve. The data were processed using the Genedata-Screener tool. Relative IC50 values were determined using luminescence units by calculating percent inhibition with respect to the in-plate “MIN” (GDC-0032 reference control) and “MAX” (DMSO) controls. The data was analyzed using a 4-parameter nonlinear logistic equation (four-parameter logistic concentration-response curve):
Y=bottom+[(top−bottom)/1+(X/IC50)slope]
where Y=% inhibition, X=concentration of inhibitor, bottom=minimum value of y attained by curve-fit, top=maximum value of y attained by curve-fit and slope=steepness of curve at the IC50.
% Inhibition=[(signal at X−median Min)/(median Max−median Min)]×100
IC50: concentration of compound that reduces a given response (ligand binding, enzyme response) by 50%. Relative IC50: concentration giving half the compound's maximum response.
On the technique in general: In Alpha technology, singlet oxygen from a donor bead excites a nearby acceptor bead.

T1 sequence (P42336 whole entry H1047R): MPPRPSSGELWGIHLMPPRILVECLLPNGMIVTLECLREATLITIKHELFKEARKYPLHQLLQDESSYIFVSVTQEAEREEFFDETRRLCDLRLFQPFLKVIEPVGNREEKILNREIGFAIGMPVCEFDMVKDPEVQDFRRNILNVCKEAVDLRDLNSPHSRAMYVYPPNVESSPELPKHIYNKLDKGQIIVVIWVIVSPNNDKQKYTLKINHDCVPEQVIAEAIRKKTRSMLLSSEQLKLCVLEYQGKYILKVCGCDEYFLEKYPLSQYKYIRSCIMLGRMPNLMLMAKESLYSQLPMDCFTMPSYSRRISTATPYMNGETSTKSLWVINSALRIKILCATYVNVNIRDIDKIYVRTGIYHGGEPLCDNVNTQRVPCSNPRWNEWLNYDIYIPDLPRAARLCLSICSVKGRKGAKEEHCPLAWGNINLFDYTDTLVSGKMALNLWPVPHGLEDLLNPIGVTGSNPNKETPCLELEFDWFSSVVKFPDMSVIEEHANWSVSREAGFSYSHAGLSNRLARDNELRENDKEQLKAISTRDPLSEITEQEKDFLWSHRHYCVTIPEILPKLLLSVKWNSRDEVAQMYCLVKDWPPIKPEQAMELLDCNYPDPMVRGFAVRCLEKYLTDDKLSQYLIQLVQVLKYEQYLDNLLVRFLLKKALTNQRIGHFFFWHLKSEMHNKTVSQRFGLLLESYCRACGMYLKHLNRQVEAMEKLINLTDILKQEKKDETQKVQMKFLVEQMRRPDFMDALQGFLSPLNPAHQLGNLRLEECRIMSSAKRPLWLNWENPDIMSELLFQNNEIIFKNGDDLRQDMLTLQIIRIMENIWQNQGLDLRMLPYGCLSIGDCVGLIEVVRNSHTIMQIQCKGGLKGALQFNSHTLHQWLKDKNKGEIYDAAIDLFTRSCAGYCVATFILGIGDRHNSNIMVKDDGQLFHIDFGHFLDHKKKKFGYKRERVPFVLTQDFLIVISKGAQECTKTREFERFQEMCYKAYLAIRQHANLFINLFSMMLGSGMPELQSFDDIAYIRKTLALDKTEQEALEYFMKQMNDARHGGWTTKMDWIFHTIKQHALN
T1 sequence (P27986 whole entry partner): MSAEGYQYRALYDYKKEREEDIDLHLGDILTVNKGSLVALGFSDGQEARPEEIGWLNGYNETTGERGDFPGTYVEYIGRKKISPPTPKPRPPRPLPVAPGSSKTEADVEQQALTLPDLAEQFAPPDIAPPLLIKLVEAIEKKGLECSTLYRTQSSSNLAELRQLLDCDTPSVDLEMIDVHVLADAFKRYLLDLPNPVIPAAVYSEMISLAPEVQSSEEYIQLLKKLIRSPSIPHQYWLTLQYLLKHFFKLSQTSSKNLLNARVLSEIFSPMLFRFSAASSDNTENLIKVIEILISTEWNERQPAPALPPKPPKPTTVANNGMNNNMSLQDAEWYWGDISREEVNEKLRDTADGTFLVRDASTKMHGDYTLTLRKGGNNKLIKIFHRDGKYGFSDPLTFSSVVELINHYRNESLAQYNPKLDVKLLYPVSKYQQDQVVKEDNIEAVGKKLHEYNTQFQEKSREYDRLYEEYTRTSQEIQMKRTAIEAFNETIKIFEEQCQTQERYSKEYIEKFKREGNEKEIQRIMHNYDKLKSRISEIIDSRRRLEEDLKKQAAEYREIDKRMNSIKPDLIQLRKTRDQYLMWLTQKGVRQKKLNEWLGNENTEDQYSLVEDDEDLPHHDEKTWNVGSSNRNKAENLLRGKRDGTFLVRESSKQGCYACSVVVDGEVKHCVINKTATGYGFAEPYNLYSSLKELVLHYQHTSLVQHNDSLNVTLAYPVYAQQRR

In the case of `Cc1cc([C@@H](C)Nc2cccnc2C(=O)NCC(C)(C)O)c2oc(-c3ccccc3)c(C)c(=O)c2c1` [Example 177A, 3-[[(1R)-1-(3,6-Dimethyl-4-oxo-2-phenyl-chromen-8-yl)ethyl]amino]-N-(2-hydroxy-2-methyl-propyl)pyridine-2-carboxamide], the half-inhibitory concentration (IC50) (in general, the point on the concentration scale where inhibition reaches its midpoint) is below 500 nM.
Consider `Cc1cc([C@@H](C)Nc2cccnc2C(=O)N[C@@H]2CCOC2)c2oc(-c3ccccc3)c(C)c(=O)c2c1` [Example 178A, 3-[[(1R)-1-(3,6-Dimethyl-4-oxo-2-phenyl-chromen-8-yl)ethyl]amino]-N-[(3R)-tetrahydrofuran-3-yl]pyridine-2-carboxamide], for which the half-maximal inhibitory concentration (IC50) is below 500 nM.
For the compound `Cc1cc([C@@H](C)Nc2ccccc2CO)c2oc(-c3cccnc3)c(C)c(=O)c2c1` [Example 224C, 8-[(1R)-1-[2-(Hydroxymethyl)anilino]ethyl]-3,6-dimethyl-2-(3-pyridyl)chromen-4-one], the 50% inhibitory concentration (IC50) was below 500 nM.
